Source: patent US9707267B2, “Beta-turn peptidomimetic cyclic compounds for treating dry eye” (Mimetogen Pharmaceuticals, Inc., priority 2008, dated 2017)
Marks after values point to notes of the source that are not given here.

Assays:
[1] = system: rat conjunctival goblet cells; assay: Glycoconjugate secretion from rat conjunctival goblet cells, ELLA (Example 1); format: cell-based; conditions: 2 hours, mean±sem
Method: Cells derived from the explants were grown in RPMI 1640 supplemented with 10% fetal bovine serum (FBS) and penicillin (100 U/mL)/streptomycin (100 μg/mL) at 37° C. in a humidified 5% CO2-atmosphere for seventy-two hours. Contaminating nongoblet cells were removed by scraping them from the plate. During this time, goblet cells migrated from the pieces and began to proliferate. After one week, the goblet cells were trypsinized and plated in twenty-four well culture plates with RPMI-1640 media supplemented with 10% FBS.
To measure glycoconjugate secretion, the conjunctival goblet cells were grown to confluence and were serum deprived for two hours before addition of nerve growth factor (NGF), carbachol (Cch), compound D3, compound 3Aa and compound 3Ak for two hours. Compounds D3, 3Aa and 3Ak were administered at concentrations of 30 μm (micromolar), 10 μM, 1 μM and 0.3 μM. The vehicle used to dissolve the compounds, dimethyl sulfoxide (DMSO) was also included. DMSO was used as the basal control for the 30 μM concentration of compound, which was at 0.1% (v/v). The cholinergic agonist carbachol (Cch), added at 100 μM (micromolar), was a positive control for glycoconjugate secretion. The amount of glycoconjugate secreted into the media was measured by enzyme-linked lectin assay (ELLA). The media were collected and analyzed for amount of the lectin-detectable glycoconjugates, including mucins. The amount of secretion was measured by using the lectin UEA-I which is specific for rat conjunctival goblet cell mucins. Biotinylated UEA-I lectin and alkaline phosphatase-labeled streptavidin were used as described in Rios, J. D., et al., “Role of Neurotrophins and Neurotrophin Receptors in Rat Conjunctival Goblet Cell Secretion and Proliferation, Ophthalmology & Visual Science, 48: 1543-1551 (2007), the entire content of which is incorporated herein by reference. The cells were removed and sonicated, and the cell homogenate was analyzed for the total amount of protein by using the Bradford protein assay. […] Glycoconjugate secretion was expressed as the increase (x-fold) over basal.
Data for CGC glycoconjugate secretion and proliferation were expressed as the increase (x-fold) above basal value, which was standardized to 1.0. For example, for the 0.3 μM (micromolar), 1 μM and 10 μM doses, the CGC glycoconjugate secretion and proliferation were expressed as test compound over untreated cells. For the 30 μM dose, the CGC glycoconjugate secretion and proliferation were expressed as test compound over DMSO untreated cells. Results are expressed as the mean±sem.

[2] = system: Scopolamine Induced Rat Dry Eye Model; assay: Scopolamine induced rat dry eye model, tear break-up time (Example 5); format: in vivo; conditions: for Tear Break-Up Time: ± SD
Method: (§1) Dry eye was induced using scopolamine hydrobromide (Sigma-Aldrich, St. Louis, Mo.), which was continuously and systemically delivered to the animals via an osmotic pump (2ML4 Alzet®; CedarLane, Burlington, Ontario) filled with scopolamine and implanted subcutaneously in the mid dorsal area between the scapulae. Scopolamine was delivered for a twenty-eight day period at 12.5 mg/day, which translated to 30.0±1.5 mg/kg via osmotic pump.
(§2) Treatments for G2-G6 continued daily for seventeen days (up to an including day twenty-one). Thereafter, treatments were terminated but the study continued for another week. During treatment, each animal was anesthetized in an isoflurane chamber. Once asleep, each animal received a 5 μL topical instillation of test article into the lower conjunctival sac of both eyes using a calibrated micropipette. If a clinical endpoint was also being tested, the test article was topically instilled at the end of the testing.
Tear break-up times were tested on day 13 (after 8 daily treatments), day 21 (after 16 daily treatments), and day 28 (after treatment was stopped for 7 days). TBUT was evaluated by instillation of 10 μL sodium fluorescein solution (0.2% in sterile saline) in the upper conjunctival sac of the anaesthetized animal. The lids were blinked manually to distribute the fluorescein with the tear film. Under the cobalt blue light of a portable slit lamp ophthalmoscope (Reichert Ophthalmic Instruments, Depew, N.Y.), the eye was held open and the time until one or more black streaks appeared in the precorneal tear film was recorded. For each eye, a minimum of triplicate readings were made with fresh fluorescein solution.

cultured goblet cells = assay: Goblet cell proliferation, Alamar Blue (Example 2); format: cell-based, rat; conditions: serum-free media
Method: The culturing of conjunctival goblet cells from explant cultures was as previously described in Shatos, M. et al., “Isolation, Characterization, and Propagation of Rat Conjunctival Goblet Cells In Vitro,” IOVS 42:1455-1464 (2001), the entire content of which is incorporated herein by reference. The tissue was finely minced and individual pieces were anchored onto scored 6-well cultures dishes in 0.5 mL of complete RPMI-1640 (supplemented with 10% FBS, 2 mM glutamine and 100 μg/mL penicillin-streptomycin) and incubated at 37° C. in a humidified 5% CO2-atmosphere. Explant cultures were refed every 2 days. Within a few days, goblet cells migrated from the pieces and began to proliferate. After approximately one week, the tissue plugs were removed and the goblet cells were allowed to grow to confluence. […]
Cell proliferation was measured using Alamar Blue from Biosource (Invitrogen Corporation, Carlsbad, Calif.) according to the manufacture's protocol. […] After 24 hours, 10% Alamar Blue was added for 6 hours and the absorbance was read at 570 and 600 nm on a Benchmark Plus (Biorad). The percentage of Alamar Blue reduction was calculated according to the manufacture's instructions. […]

[3] = system: Scopolamine Induced Rat Dry Eye Model; assay: Scopolamine induced rat dry eye model, Schirmer test (Example 5); format: in vivo; conditions: ± SD
Method: as §1, §2
Tear production was monitored using the Schirmer test on days 5, 7, 14, 20 and 29 post induction of dry eye. Tear production was measured with Zone-Quick standardized phenol-red threads (FCI Ophthalmics, Marshfield Hills, Mass.) on animals lightly sedated with Isoflurane. The threads were inserted in the lateral lower canthus and left in place for thirty seconds. The length of the stained moistened portion of the thread was measured in millimeters, using the scale provided with the threads to an accuracy of 1 mm.

NCCCC[C@@H]1NC(=O)[C@H](CCC(=O)O)NC(=O)c2cc([N+](=O)[O-])ccc2OCCC(C(=O)NCC(=O)O)NC1=O (some centres unmarked) [Compound D3]
CGC glycoconjugate secretion ([1]; 0.3 μM): 1.3±0.2 fold above basal | CGC glycoconjugate secretion ([1]; 1 μM): 1.6±0.2 fold above basal | CGC glycoconjugate secretion ([1]; 10 μM): 1.6±0.3 fold above basal | CGC glycoconjugate secretion ([1]; 30 μM, over DMSO basal): 1.7±0.7 fold above basal | Tear Break-Up Time ([2]; 0.4% topical 1× daily Days 5-21, Day 13): 4.5 ± 1.7^b seconds | Tear Break-Up Time ([2]; 0.4% topical 1× daily Days 5-21, Day 21): 4.4 ± 1.7 s | Tear Break-Up Time ([2]; 0.4% topical 1× daily Days 5-21, Day 28 (7 days after treatment stopped)): 4.3 ± 0.8 s | changes in TBUT at Day 28 as compared to Day 13 (in words) ([2]; 1% dose vs untreated and saline control groups): statistically significantly improved TBUT | Tear Break-Up Time ([2]; 1.0% topical 1× daily Days 5-21, Day 21): 5.1 ± 1.9 s | Tear Break-Up Time ([2]; 1.0% topical 1× daily Days 5-21, Day 28 (7 days after treatment stopped)): 6.4 ± 1.2 s | Tear Break-Up Time ([2]; 2.5% topical 1× daily Days 5-21, Day 13): 7.0 ± 2.3 s | Tear Break-Up Time ([2]; 2.5% topical 1× daily Days 5-21, Day 21): 5.8 ± 2.1 s | Tear Break-Up Time ([2]; 2.5% topical 1× daily Days 5-21, Day 28 (7 days after treatment stopped)): 5.0 ± 1.3 s | goblet cell proliferation (in words) (cultured goblet cells; concentrations up to 100 μM, by day four): did not stimulate goblet cell proliferation | Schirmer's Test ([3]; 1.0% topical 1× daily Days 5-21, Day 20): 6.8 ± 0.8 mm | Schirmer's Test ([3]; 2.5% topical 1× daily Days 5-21, Day 7): 9.1 ± 1.9 mm | Schirmer's Test ([3]; 2.5% topical 1× daily Days 5-21, Day 14): 9.4 ± 1.4 mm

NGF: nerve growth factor (recombinant human), positive control
CGC glycoconjugate secretion ([1]; NGF, concentration not given): 1.3±0.1 fold above basal | Tear Break-Up Time ([2]; 0.00053% topical 1× daily Days 5-21, Day 13): 5.2 ± 1.6 s | Tear Break-Up Time ([2]; 0.00053% topical 1× daily Days 5-21, Day 21): 4.7 ± 0.8 s | Tear Break-Up Time ([2]; 0.00053% topical 1× daily Days 5-21, Day 28 (7 days after treatment stopped)): 4.2 ± 0.8 s | goblet cell proliferation (in words) (cultured goblet cells; NGF 10 pM to 10 nM, up to day four): did not increase proliferation | Schirmer's Test ([3]; 0.00053% topical 1× daily Days 5-21, Day 5 (test before first instillation)): 9.2 ± 2.5 mm | Schirmer's Test ([3]; 0.00053% topical 1× daily Days 5-21, Day 7): 7.8 ± 1.4 mm | Schirmer's Test ([3]; 0.00053% topical 1× daily Days 5-21, Day 14): 8.6 ± 2.1 mm | Schirmer's Test ([3]; 0.00053% topical 1× daily Days 5-21, Day 29 (after treatment stopped)): 7.5 ± 2.5 mm
